Test results: PMC11375702, “Early Preclinical Studies of Ergosterol Peroxide and Biological Evaluation of Its Derivatives” (ACS Omega, 2024)

Tests used:
CYP2C8 = target: T1, CYP2C8 (Homo sapiens, UniProt P10632); test: Microsomal CYP inhibition assay, CYP2C8; assay type: in vitro ADME; conditions: pooled human liver microsomes, probe amodiaquine
T1 sequence (P10632 1-490): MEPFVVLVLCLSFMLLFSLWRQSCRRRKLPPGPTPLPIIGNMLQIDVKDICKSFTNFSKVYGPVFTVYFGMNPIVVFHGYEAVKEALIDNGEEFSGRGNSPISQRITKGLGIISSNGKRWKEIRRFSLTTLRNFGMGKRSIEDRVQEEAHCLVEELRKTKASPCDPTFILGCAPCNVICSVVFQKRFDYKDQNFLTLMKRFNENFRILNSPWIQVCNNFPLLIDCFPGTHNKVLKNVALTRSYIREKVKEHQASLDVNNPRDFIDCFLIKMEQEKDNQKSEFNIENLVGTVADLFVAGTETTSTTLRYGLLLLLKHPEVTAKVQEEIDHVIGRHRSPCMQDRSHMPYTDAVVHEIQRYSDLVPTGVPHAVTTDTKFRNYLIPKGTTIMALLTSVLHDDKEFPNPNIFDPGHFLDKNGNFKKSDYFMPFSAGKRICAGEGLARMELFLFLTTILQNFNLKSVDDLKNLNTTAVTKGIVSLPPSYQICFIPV
Description: (§1) To assess potential cardiotoxicity, we performed the human ether-go-go-related gene (hERG) inhibition assay. […] Briefly, EP was tested at six concentrations (cumulative concentration–response). […] For hepatotoxicity determination, we performed the microsomal CYP inhibition assay. Briefly, EP was incubated at seven increasing concentrations with pooled human liver microsomes. […] The supernatants were analyzed by LC-MS/MS.

CYP1A2 = target: T2, CYP1A2 (Homo sapiens, UniProt P05177); test: Microsomal CYP inhibition assay, CYP1A2; assay type: in vitro ADME; conditions: pooled human liver microsomes, probe tacrine
T2 construct: from tissue; host or cells: pooled human liver microsomes
T2 sequence (P05177 1-516): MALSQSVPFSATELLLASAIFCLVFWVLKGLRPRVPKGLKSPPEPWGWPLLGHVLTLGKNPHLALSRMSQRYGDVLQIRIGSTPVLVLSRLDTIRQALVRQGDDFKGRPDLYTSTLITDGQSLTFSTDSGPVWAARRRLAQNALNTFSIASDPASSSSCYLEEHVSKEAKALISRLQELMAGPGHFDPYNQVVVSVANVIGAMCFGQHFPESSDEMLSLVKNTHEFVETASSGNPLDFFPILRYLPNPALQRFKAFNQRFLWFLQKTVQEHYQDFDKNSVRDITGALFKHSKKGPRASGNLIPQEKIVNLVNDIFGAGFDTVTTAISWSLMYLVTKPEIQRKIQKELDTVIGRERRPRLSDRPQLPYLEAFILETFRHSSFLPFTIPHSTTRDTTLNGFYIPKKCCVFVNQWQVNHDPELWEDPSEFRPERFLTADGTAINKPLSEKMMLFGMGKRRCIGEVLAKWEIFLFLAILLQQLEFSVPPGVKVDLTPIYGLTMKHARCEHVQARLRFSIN
Description: as §1

CYP2D6 = CYP2D6 (Homo sapiens, UniProt P10635); test: Microsomal CYP inhibition assay, CYP2D6; assay type: in vitro ADME; conditions: pooled human liver microsomes, probe dextromethorphan
CYP2D6, sequence (P10635 whole entry): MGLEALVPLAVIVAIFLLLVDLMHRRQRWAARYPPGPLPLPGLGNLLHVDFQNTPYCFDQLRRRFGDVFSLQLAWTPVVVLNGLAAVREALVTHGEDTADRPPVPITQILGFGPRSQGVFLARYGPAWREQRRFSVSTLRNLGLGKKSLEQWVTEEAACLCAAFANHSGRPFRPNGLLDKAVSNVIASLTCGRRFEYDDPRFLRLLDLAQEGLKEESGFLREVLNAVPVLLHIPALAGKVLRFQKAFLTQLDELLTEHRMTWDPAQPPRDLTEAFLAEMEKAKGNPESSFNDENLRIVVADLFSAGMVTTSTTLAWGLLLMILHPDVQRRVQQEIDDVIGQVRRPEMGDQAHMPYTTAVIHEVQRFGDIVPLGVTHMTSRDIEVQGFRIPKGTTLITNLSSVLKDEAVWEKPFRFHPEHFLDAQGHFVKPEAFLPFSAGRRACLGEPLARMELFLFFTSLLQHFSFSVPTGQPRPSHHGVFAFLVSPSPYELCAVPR
Description: as §1

Caco-2 cells = test: Caco-2 permeability assay; assay type: in vitro ADME; conditions: Caco-2
Description: It was performed in the 96-well Transwell system with a modified method.[36] Caco-2 cells were maintained at 37 °C in a humidified incubator with an atmosphere of 5% CO2. The cells were cultured in MEM containing 20% FBS in […], 100 units/mL penicillin, and 100 μg/mL of streptomycin. The Caco-2 cells were seeded onto inserts of a 96-well plate at a density of 0.5 × 10^5 cells/insert and cultured in the MEM containing 20% FBS for 7 days. Each cultured monolayer on the 96-well plate was washed twice with HBSS/HEPES (10 mM, pH 7.4). The permeability assay was initiated by the addition of each compound solution (10 μmol/L) into inserts (apical side, A) or receivers (basolateral side, B). The Caco-2 cell monolayers were incubated for 2 h at 37 °C. Fractions were collected from receivers (if apical to basal permeability) or inserts (if basal to apical permeability), and concentrations were assessed by UPLC/MS (Waters; Milford, MA). All compounds were tested in triplicates. The A → B (or B → A) apparent permeability coefficients ([…]) of each compound were calculated using the equation Pappa = dQ/dt × 1/AC0. The flux of a drug across the monolayer is dQ/dt (μmol/s). The initial drug concentration on the apical side is C0 (μmol/L). The surface area of the monolayer is A (cm^2).

[1] = Balb/c, mouse and human
Description: Briefly, pooled blood from 3 animals for experiment (male Balb/c 6–8w from the division of laboratory animal medicine in-house breeding colony) was collected, and the heparinized plasma was prepared. Plasma and test compounds were added to individual wells of a 96-well microtiter plate. Compounds were incubated at 37 °C for the provided time points. All tests were performed in triplicates. The test compound was incubated with plasma at six different time points. The reaction was terminated by methanol containing an internal standard. After centrifugation, the concentration of the test compound in the supernatant was quantified by LC-MS/MS.
Plasma stability assay: Briefly, pooled blood from 3 animals for experiment (male Balb/c 6-8w
from the division of laboratory animal medicine in-house breeding colony) was collected, and
the heparinized plasma was prepared. Plasma and test compounds were added to the individual
wells of a 96-well microtiter plate. Compounds were incubated at 37°C for the provided time
points. All tests were performed in triplicates. Then, the test compound was incubated with
plasma at six different time points. The reaction was terminated by the addition of methanol
containing an internal standard. After centrifugation, the concentration of the test compound in
the supernatant was quantified by LC-MS/MS. The percentage of test compound remaining at
compounds are known to be metabolized by plasma esterases,1 and were also incubated with
each batch of test compound.
A standard protocol and MS method was used for the plasma stability experiment. The extraction
procedure for plasma/tissue samples and the spiked plasma/tissue calibration standards were
identical: A 25 µL of study sample or spiked plasma/tissue calibration standard was added to
individual pre-labeled micro-centrifuge tubes followed by 100 µL of internal standard prepared
in Acetonitrile (Albendazole, 500 ng/mL) was added except for blank, where 100 µL of
Acetonitrile was added. Samples were vortexed for 5 minutes. Samples were centrifuged for 5
minutes at a speed of 4000 rpm at 4°C. Following centrifugation, 100 µL of clear supernatant
was transferred in 96 well plates and analyzed using LC-MS/MS mode. The LC system
comprises of a binary pump that can mix two mobile phases: A = Water+0.1% formic acid; B =
acetonitrile +0.1%formic acid. The system was operated in gradient mode using a 6 minute
min, 10-90% A to B in 5.5-6 min, and then hold at this gradient, using a Phenomenex Luna, 150
X 4.6 mm, 5 µm column. Source Parameter: positive, Ion Spray Voltage 5500, Temperature
550C, interface heater on.

| Compound | IC50 (CYP2C8) [µM] | IC50 (CYP1A2) [µM] | IC50 (CYP2D6) [µM] | efflux ratio (B2A/A2B) (Caco-2 cells) | plasma stability [1] [h] |
| --- | --- | --- | --- | --- | --- |
| CC(C)[C@@H](C)/C=C/[C@@H](C)[C@H]1CC[C@@H]2[C@]1(C)CC[C@H]1[C@]23C=C[C@]2(C[C@@H](O)CC[C@]12C)OO3 [Compound 2, Ergosterol peroxide] | 9.9 | 16.3 | > 25 | 0.93 |  |
| CC(C)[C@@H](C)/C=C/[C@@H](C)[C@H]1CC[C@@H]2[C@]1(C)CC[C@H]1[C@]23C=C[C@]2(CC(=O)CC[C@]12C)OO3 [Compound 3] |  |  |  |  | > 48 |
